Measured values as given in patent publication US8217013B2, “Polyene diester antibiotics” (priority 2007, dated 2012).
Where two headings read alike, the source gives them in different places.

Experiments:
Assay in all cases: Test of antibacterial activity in vitro (bacteria-inhibition zone)
Type in all cases: cell-based
Saccharomyces cerevisiae = details: for zone of inhibition at 5.6 µg/mL: Saccharomyces cerevisiae, 5.6 μg/ml after conversion; for diameter of the bacteria-inhibition zone, Saccharomyces cerevisiae 0 h / diameter of the bacteria-inhibition zone, Saccharomyces cerevisiae 6 h / diameter of the bacteria-inhibition zone, Saccharomyces cerevisiae 24 h / diameter of the bacteria-inhibition zone, Saccharomyces cerevisiae 48 h: 2.8 μg/ml after conversion
From the text: (§1) Test of Antibacterial Activity In Vitro
(§2) Experiment drugs: the polyene diester compounds prepared by examples 1-12
(§3) Control drugs: amphotericin B (standard product) • mycostatin (standard product) • natamycin (standard product)
2.2 Preparation of Saccharomyces cerevisiae suspension: PHARMACOPOEIA OF THE PEOPLES REPUBLIC OF CHINA, second part, 2005 edition, appendix p 80, p 83.
(§4) Taking appropriate amount of the above mentioned amphotericin B, mycostatin, natamycin and the polyene diester compounds prepared by examples 1-8 and 10-12, dissolving in a little dimethyl sulfoxide respectively, using pH7 phosphate buffer to dilute into solution which is equivalent to contain amphotericin B, mycostatin, natamycin 280 Units per milliliter, taking 1 ml and using pH7 phosphate buffer to quantitatively dilute into solution which is equivalent to contain amphotericin B 1.4 μg/ml and 2.8 μg/ml, and is equivalent to contain 5.6 μg/ml of mycostatin and natamycin.
(§5) In addition, preparing the solution according to the same method, adding 40% defibered sheep serum, using pH7 phosphate buffer to quantitatively dilute into unit solution which is equivalent to contain amphotericin B 1.4 μg/ml and 2.8 μg/ml, and is equivalent to contain 5.6 μg/ml of mycostatin and natamycin. Testing according to PHARMACOPOEIA OF THE PEOPLES REPUBLIC OF CHINA, second part, 2005 edition, appendix XIA The Antibiotics Microorganism Test.
(§6) Medium: Improved Martin Agar Medium, PHARMACOPOEIA OF THE PEOPLES REPUBLIC OF CHINA, second part, 2005 edition, appendix p 84.
(§7) Test method: Double-plate counting method; […] bacteria bed 15 ml to replace the double layers, culture temperature: 37° C., time: 24 h; strain concentration: 1%
(§8) Medium: Modified Martin Broth Medium

Candida mycoderma = details: for zone of inhibition at 5.6 µg/mL: 5.6 μg/ml after conversion; for diameter of the bacteria-inhibition zone, Candida mycoderma 0 h / diameter of the bacteria-inhibition zone, Candida mycoderma 6 h / diameter of the bacteria-inhibition zone, Candida mycoderma 24 h / diameter of the bacteria-inhibition zone, Candida mycoderma 48 h: 2.8 μg/ml after conversion
From the text: as §1, §2, §3
2.3 Preparation of Candida mycoderrna suspension: the method is as same as preparation of Saccharomyces cerevisiae suspension
as §4, §5, §6, §7, §8

Candida albicans = details: for zone of inhibition at 5.6 µg/mL: Candida albicans
From the text: as §1, §2, §3
2.1 Preparation of Candida albicans suspension: PHARMACOPOEIA OF THE PEOPLES REPUBLIC OF CHINA, second part, 2005 edition, appendix p 81-84.
as §4, §5, §6
Test method: Double-plate counting method; […] bacteria bed 15 ml to replace the double layers, culture temperature: 37° C., time: 24 h; strain concentration: 1% […]

[1] = 0 h, no serum, read-out: diameter of the bacteria-inhibition zone, Saccharomyces cerevisiae 0 h
[2] = 0 h, serum added (40% defibered sheep serum), read-out: diameter of the bacteria-inhibition zone, Saccharomyces cerevisiae 0 h
[3] = 6 h, no serum, read-out: diameter of the bacteria-inhibition zone, Saccharomyces cerevisiae 6 h
[4] = 6 h, serum added (40% defibered sheep serum), read-out: diameter of the bacteria-inhibition zone, Saccharomyces cerevisiae 6 h
[5] = 24 h, no serum, read-out: diameter of the bacteria-inhibition zone, Saccharomyces cerevisiae 24 h
[6] = 24 h, serum added (40% defibered sheep serum), read-out: diameter of the bacteria-inhibition zone, Saccharomyces cerevisiae 24 h
[7] = 48 h, no serum, read-out: diameter of the bacteria-inhibition zone, Saccharomyces cerevisiae 48 h
[8] = 48 h, serum added (40% defibered sheep serum), read-out: diameter of the bacteria-inhibition zone, Saccharomyces cerevisiae 48 h
[9] = 0 h, no serum, read-out: diameter of the bacteria-inhibition zone, Candida mycoderma 0 h
[10] = 6 h, no serum, read-out: diameter of the bacteria-inhibition zone, Candida mycoderma 6 h
[11] = 24 h, no serum, read-out: diameter of the bacteria-inhibition zone, Candida mycoderma 24 h
[12] = 48 h, no serum, read-out: diameter of the bacteria-inhibition zone, Candida mycoderma 48 h
[13] = 0 h, 5.6 μg/ml after conversion, serum added (40% defibered sheep serum)
[14] = 6 h, 5.6 μg/ml after conversion, serum added (40% defibered sheep serum)
[15] = 24 h, 5.6 μg/ml after conversion, serum added (40% defibered sheep serum)
[16] = 48 h, 5.6 μg/ml after conversion, serum added (40% defibered sheep serum)
[17] = 0 h, 5.6 μg/ml after conversion, no serum, read-out: diameter of the bacteria-inhibition zone, Candida albicans 0 h
[18] = 6 h, 5.6 μg/ml after conversion, no serum, read-out: diameter of the bacteria-inhibition zone, Candida albicans 6 h
[19] = 24 h, 5.6 μg/ml after conversion, no serum, read-out: diameter of the bacteria-inhibition zone, Candida albicans 24 h
[20] = 48 h, 5.6 μg/ml after conversion, no serum, read-out: diameter of the bacteria-inhibition zone, Candida albicans 48 h
[21] = 0 h, serum added (40% defibered sheep serum)
[22] = 0 h, 2.8 μg/ml after conversion, no serum
[23] = 0 h, 2.8 μg/ml after conversion, serum added (40% defibered sheep serum)
[24] = 6 h, 2.8 μg/ml after conversion, no serum
[25] = 24 h, 2.8 μg/ml after conversion, no serum
[26] = 48 h, 2.8 μg/ml after conversion, no serum

Compound	zone of inhibition at 5.6 µg/mL (Saccharomyces cerevisiae; [1])	zone of inhibition at 5.6 µg/mL (Saccharomyces cerevisiae; [2])	zone of inhibition at 5.6 µg/mL (Saccharomyces cerevisiae; [3])	zone of inhibition at 5.6 µg/mL (Saccharomyces cerevisiae; [4])	zone of inhibition at 5.6 µg/mL (Saccharomyces cerevisiae; [5])	diameter of the bacteria-inhibition zone, Saccharomyces cerevisiae 0 h (Saccharomyces cerevisiae; 0 h, no serum)	diameter of the bacteria-inhibition zone, Saccharomyces cerevisiae 0 h (Saccharomyces cerevisiae; [21])	diameter of the bacteria-inhibition zone, Saccharomyces cerevisiae 6 h (Saccharomyces cerevisiae; 6 h, no serum)	diameter of the bacteria-inhibition zone, Saccharomyces cerevisiae 24 h (Saccharomyces cerevisiae; 24 h, no serum)	diameter of the bacteria-inhibition zone, Saccharomyces cerevisiae 48 h (Saccharomyces cerevisiae; 48 h, no serum)	diameter of the bacteria-inhibition zone, Candida mycoderma 0 h (Candida mycoderma; 0 h, no serum)	diameter of the bacteria-inhibition zone, Candida mycoderma 0 h (Candida mycoderma; [21])	diameter of the bacteria-inhibition zone, Candida mycoderma 6 h (Candida mycoderma; 6 h, no serum)	diameter of the bacteria-inhibition zone, Candida mycoderma 24 h (Candida mycoderma; 24 h, no serum)	diameter of the bacteria-inhibition zone, Candida mycoderma 48 h (Candida mycoderma; 48 h, no serum)	diameter of the bacteria-inhibition zone, Candida albicans 0 h (Candida albicans; [22])	diameter of the bacteria-inhibition zone, Candida albicans 0 h (Candida albicans; [23])	diameter of the bacteria-inhibition zone, Candida albicans 6 h (Candida albicans; [24])	diameter of the bacteria-inhibition zone, Candida albicans 24 h (Candida albicans; [25])	diameter of the bacteria-inhibition zone, Candida albicans 48 h (Candida albicans; [26])	other results
C[C@@H]1C/C=C/C=C/C=C/C=C/[C@H](O[C@@H]2O[C@H](C)[C@@H](O)[C@H](N)[C@@H]2O)C[C@@H]2O[C@](O)(C[C@@H](O)C[C@H]3O[C@@H]3/C=C/C(=O)O1)C[C@H](O)[C@H]2C(=O)O [Natamycin, natamycin, reference compound]	14 to 16 mm	12 to 14 mm	14 to 16 mm	12 to 14 mm	14 to 16 mm																zone of inhibition at 5.6 µg/mL (Saccharomyces cerevisiae; [6]): 12 to 14 mm; zone of inhibition at 5.6 µg/mL (Saccharomyces cerevisiae; [7]): 14 to 16 mm; zone of inhibition at 5.6 µg/mL (Saccharomyces cerevisiae; [8]): 12 to 14 mm; zone of inhibition at 5.6 µg/mL (Candida mycoderma; [9]): 12 to 14 mm; zone of inhibition at 5.6 µg/mL (Candida mycoderma; [10]): 12 to 14 mm; zone of inhibition at 5.6 µg/mL (Candida mycoderma; [11]): 12 to 14 mm; zone of inhibition at 5.6 µg/mL (Candida mycoderma; [12]): 12 to 14 mm; diameter of the bacteria-inhibition zone, Candida albicans 0 h (Candida albicans; [13]): ++ (9-12 mm: ++); diameter of the bacteria-inhibition zone, Candida albicans 6 h (Candida albicans; [14]): ++ (9-12 mm: ++); diameter of the bacteria-inhibition zone, Candida albicans 24 h (Candida albicans; [15]): ++ (9-12 mm: ++); diameter of the bacteria-inhibition zone, Candida albicans 48 h (Candida albicans; [16]): ++ (9-12 mm: ++); zone of inhibition at 5.6 µg/mL (Candida albicans; [17]): 9 to 12 mm; zone of inhibition at 5.6 µg/mL (Candida albicans; [18]): 9 to 12 mm; zone of inhibition at 5.6 µg/mL (Candida albicans; [19]): 9 to 12 mm; zone of inhibition at 5.6 µg/mL (Candida albicans; [20]): 9 to 12 mm
CC(OC(=O)OC1CCCCC1)OC(=O)C1C(O)CC2(O)CC(O)CC(O)C(O)CCC(O)CC(O)CC(=O)OC(C)C(C)C(O)C(C)C=CC=CC=CC=CC=CC=CC=CC(OC3OC(C)C(O)C(N)C3O)CC1O2 (centres unmarked) [amphotericin B cyclohexyloxycarbonyloxyethyl ester]						++ (9-12 mm: ++)	++ (9-12 mm: ++)	++ (9-12 mm: ++)	++ (9-12 mm: ++)	++ (9-12 mm: ++)	++ (9-12 mm: ++)	++ (9-12 mm: ++)	++ (9-12 mm: ++)	++ (9-12 mm: ++)	++ (9-12 mm: ++)	+ (7-9 mm: +)	+ (7-9 mm: +)	+ (7-9 mm: +)	+ (7-9 mm: +)	+ (7-9 mm: +)	diameter of the bacteria-inhibition zone, Candida albicans 6 h (Candida albicans; 6 h, 2.8 μg/ml after conversion, serum added (40% defibered sheep serum)): ++ (9-12 mm: ++)
CC(C)OC(=O)OC(C)OC(=O)C1C(O)CC2(O)CC(O)CC(O)C(O)CCC(O)CC(O)CC(=O)OC(C)C(C)C(O)C(C)C=CC=CC=CC=CC=CC=CC=CC(OC3OC(C)C(O)C(N)C3O)CC1O2 (centres unmarked) [amphotericin B isopropoxycarbonyloxyethyl ester]						+ (7-9 mm: +)	++ (9-12 mm: ++)	+ (7-9 mm: +)	+ (7-9 mm: +)	+ (7-9 mm: +)	++ (9-12 mm: ++)	++ (9-12 mm: ++)	++ (9-12 mm: ++)	++ (9-12 mm: ++)	++ (9-12 mm: ++)	++ (9-12 mm: ++)	++ (9-12 mm: ++)	++ (9-12 mm: ++)	++ (9-12 mm: ++)	++ (9-12 mm: ++)	
Cc1oc(=O)oc1COC(=O)C1C(O)CC2(O)CC(O)CC(O)C(O)CCC(O)CC(O)CC(=O)OC(C)C(C)C(O)C(C)C=CC=CC=CC=CC=CC=CC=CC(OC3OC(C)C(O)C(N)C3O)CC1O2 (centres unmarked) [amphotericin B-5-methyl-1,3-dioxol-2-one-4-methyl ester]						++ (9-12 mm: ++)	++ (9-12 mm: ++)	++ (9-12 mm: ++)	++ (9-12 mm: ++)	++ (9-12 mm: ++)	++ (9-12 mm: ++)	++ (9-12 mm: ++)	++ (9-12 mm: ++)	++ (9-12 mm: ++)	++ (9-12 mm: ++)	++ (9-12 mm: ++)	++ (9-12 mm: ++)	++ (9-12 mm: ++)	++ (9-12 mm: ++)	++ (9-12 mm: ++)	
CC1OC(OC2/C=C/C=C/C=C/C=C/CC/C=C/C=C/C(C)[C@@H](O)[C@@H](C)[C@H](C)OC(=O)CC(O)CC(O)CC(O)CCC(O)C(O)C[C@]3(O)CC(O)C(C(=O)O)C(C2)O3)C(O)C(N)C1O (some centres unmarked) [mycostatin, reference compound]	14 to 16 mm	14 to 16 mm	14 to 16 mm	14 to 16 mm	14 to 16 mm																zone of inhibition at 5.6 µg/mL (Saccharomyces cerevisiae; [6]): 14 to 16 mm; zone of inhibition at 5.6 µg/mL (Saccharomyces cerevisiae; [7]): 14 to 16 mm; zone of inhibition at 5.6 µg/mL (Saccharomyces cerevisiae; [8]): 14 to 16 mm; zone of inhibition at 5.6 µg/mL (Candida mycoderma; [9]): 12 to 14 mm; zone of inhibition at 5.6 µg/mL (Candida mycoderma; [10]): 12 to 14 mm; zone of inhibition at 5.6 µg/mL (Candida mycoderma; [11]): 12 to 14 mm; zone of inhibition at 5.6 µg/mL (Candida mycoderma; [12]): 12 to 14 mm; diameter of the bacteria-inhibition zone, Candida albicans 0 h (Candida albicans; [13]): + (7-9 mm: +); diameter of the bacteria-inhibition zone, Candida albicans 6 h (Candida albicans; [14]): + (7-9 mm: +); diameter of the bacteria-inhibition zone, Candida albicans 24 h (Candida albicans; [15]): + (7-9 mm: +); diameter of the bacteria-inhibition zone, Candida albicans 48 h (Candida albicans; [16]): + (7-9 mm: +); zone of inhibition at 5.6 µg/mL (Candida albicans; [17]): 7 to 9 mm; zone of inhibition at 5.6 µg/mL (Candida albicans; [18]): 7 to 9 mm; zone of inhibition at 5.6 µg/mL (Candida albicans; [19]): 7 to 9 mm; zone of inhibition at 5.6 µg/mL (Candida albicans; [20]): 7 to 9 mm
